Assay results from ChEMBL document CHEMBL1141260, “Biologically active indole alkaloids from Kopsia arborea” (J Nat Prod, 2007).
In brackets after ≈: the same amount, converted by molar mass.

Legend:
Type in all cases: functional, cell-based
KB = assay: Cytotoxicity against vincristine-sensitive human KB cells
[1] = Cytotoxicity against vincristine-resistant human KB/VJ300 cells
[2] = Cytotoxicity against vincristine-resistant human KB/VJ300 cells in presence of 0.1 ug/mL vincristine
Jurkat = assay: Cytotoxicity against human Jurkat cells

Row | Structure (SMILES) | IC50 (KB) | IC50 [1] | IC50 [2] | IC50 (Jurkat)
1 | COC(=O)C1=C2Nc3ccccc3[C@]23CCN2CC[C@H]1[C@H]([C@H](C)OC)[C@@H]23 | > 25 µg/mL | > 25 µg/mL | 26.8 µM | > 25 µg/mL
2 | COC(=O)C1=C2Nc3ccccc3[C@]23CCN2CC[C@H]1[C@H]([C@@H](C)OC)[C@@H]23 | > 25 µg/mL | > 25 µg/mL | 27.1 µM | > 25 µg/mL
3 | CC[C@]12CCCNC13/C(=C\C(=O)OC)c1ccccc1N3C(=O)CC2 (some centres not stated) [ARBOLOSCINE] | 15 µg/mL (≈ 44.1 µM) | 11 µg/mL (≈ 32.3 µM) | 11.2 µM | –
4 | C/C=C1/CN2CCc3c([nH]c4ccccc34)[C@H]2C[C@@H]1C(C)=O [ARBORICINE] | > 25 µg/mL | > 25 µg/mL | 36.7 µM | > 25 µg/mL
5 | C/C=C1\[C@@H](C(C)=O)CCN2CCc3c([nH]c4ccccc34)[C@H]12 [ARBORICININE] | > 25 µg/mL | > 25 µg/mL | 31.3 µM | > 25 µg/mL
6 | C=C1C2=Nc3ccccc3[C@@]23CCN2C/C(=C/C)[C@@H]1C[C@H]23 [VALPARICINE] | 3.6 µg/mL (≈ 13 µM) | 0.75 µg/mL (≈ 2.71 µM) | 1.67 µM | 0.25 µg/mL (≈ 0.905 µM)
7 | CC[C@]12CCCN3CC[C@]4(C(=C(C(=O)OC)C1)Nc1ccccc14)[C@@H]32 [VINCADIFFORMINE] | 10.2 µg/mL (≈ 30.1 µM) | 6.3 µg/mL (≈ 18.6 µM) | 13.3 µM | 21.8 µg/mL (≈ 64.4 µM)
